Measurements published in article PMC9492458, “Development and structure–activity relationships of tanshinones as selective 11β-hydroxysteroid dehydrogenase 1 inhibitors” (Natural Products and Bioprospecting, 2022).

What was measured:
mouse 11β-HSD1 = mouse 11β-HSD1 (Mus musculus, UniProt P50172); experiment: scintillation proximity assay (SPA), microsomes of HEK-293 cells transfected with mouse 11β-HSD1; conditions: for Mouse SI (selectivity index): SI = IC50(HSD2)/IC50(HSD1); for inhibition at 1 µM: read-out: Inhibitory ratio m-HSD1, at 1.0 μM, averages of three determinations
mouse 11β-HSD1, sequence (P50172 whole entry): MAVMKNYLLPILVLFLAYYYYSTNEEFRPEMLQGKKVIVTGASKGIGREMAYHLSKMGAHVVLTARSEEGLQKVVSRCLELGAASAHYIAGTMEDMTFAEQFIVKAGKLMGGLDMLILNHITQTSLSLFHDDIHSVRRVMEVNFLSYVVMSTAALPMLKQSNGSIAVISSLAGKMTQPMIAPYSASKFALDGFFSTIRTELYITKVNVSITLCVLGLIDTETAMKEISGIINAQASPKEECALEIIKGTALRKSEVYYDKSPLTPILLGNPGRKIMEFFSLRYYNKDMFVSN
Procedure: (§1) With diverse tanshinones in hand, inhibition of human and mouse 11β-HSD1 enzymatic potency was measured by scintillation proximity assay (SPA) using microsomes containing 11β-HSD1 [46, 47]. Results are reported as the average of two or three independent experiments at each concentration.
(§2) The SPA was used to screen for inhibitors of 11β-HSDs [48], with the microsome fractions prepared from the HEK-293 cells stably transfected with either human or mouse 11β-HSD1 or 11β-HSD2 as the enzyme source. […] Reactions were initiated by the addition of 11β-HSD1 or 11β-HSD2, enzyme. […] The plates were incubated under plastic film on an orbital shaker for 120 min at room temperature before counting. The amount of [^3H]-cortisol generated in 11β-HSD1 enzyme reaction or remaining from the 11β-HSD2 enzyme reaction was captured by the beads and determined in a microplate liquid scintillation counter. The % inhibition was calculated relative to a non-inhibited control. Data were obtained from two or three independent experiments. IC50 values were calculated from concentration–response curves by a non-linear regression analysis using Prism Version 6.

mouse 11β-HSD2 = molecular target: T1, mouse 11β-HSD2 (Mus musculus, UniProt P51661); experiment: scintillation proximity assay (SPA), microsomes of HEK-293 cells transfected with mouse 11β-HSD2
T1 sequence (P51661 1-386): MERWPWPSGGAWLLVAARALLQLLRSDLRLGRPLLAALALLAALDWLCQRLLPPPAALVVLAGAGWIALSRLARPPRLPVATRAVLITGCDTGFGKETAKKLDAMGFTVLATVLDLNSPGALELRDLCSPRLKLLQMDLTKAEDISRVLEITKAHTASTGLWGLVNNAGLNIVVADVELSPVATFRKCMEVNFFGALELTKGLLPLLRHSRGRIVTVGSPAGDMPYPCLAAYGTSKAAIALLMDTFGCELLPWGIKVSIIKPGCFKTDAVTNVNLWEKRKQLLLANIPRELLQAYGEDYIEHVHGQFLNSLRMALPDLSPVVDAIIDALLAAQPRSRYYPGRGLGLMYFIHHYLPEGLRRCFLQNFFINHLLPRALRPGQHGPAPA
Procedure: as §1, §2

human 11β-HSD1 = human 11β-HSD1 (Homo sapiens, UniProt P28845); experiment: scintillation proximity assay (SPA), microsomes of HEK-293 cells transfected with human 11β-HSD1; conditions: for Human SI (selectivity index): Table 3, SI = IC50(HSD2)/IC50(HSD1); for inhibition at 1 µM: read-out: Inhibitory ratio h-HSD1, at 1.0 μM, averages of three determinations
human 11β-HSD1, sequence (P28845 whole entry): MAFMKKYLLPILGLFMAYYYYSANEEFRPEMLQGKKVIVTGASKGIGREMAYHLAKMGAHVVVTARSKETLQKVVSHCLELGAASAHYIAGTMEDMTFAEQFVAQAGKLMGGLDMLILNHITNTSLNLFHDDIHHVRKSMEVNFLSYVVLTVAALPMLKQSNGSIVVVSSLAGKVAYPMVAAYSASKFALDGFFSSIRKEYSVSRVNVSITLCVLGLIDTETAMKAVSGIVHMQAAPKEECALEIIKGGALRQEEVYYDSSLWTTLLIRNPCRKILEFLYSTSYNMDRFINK
Procedure: as §1, §2

human 11β-HSD2 = molecular target: T2, human 11β-HSD2 (Homo sapiens, UniProt P80365); experiment: scintillation proximity assay (SPA), microsomes of HEK-293 cells transfected with human 11β-HSD2
T2 sequence (P80365 1-405): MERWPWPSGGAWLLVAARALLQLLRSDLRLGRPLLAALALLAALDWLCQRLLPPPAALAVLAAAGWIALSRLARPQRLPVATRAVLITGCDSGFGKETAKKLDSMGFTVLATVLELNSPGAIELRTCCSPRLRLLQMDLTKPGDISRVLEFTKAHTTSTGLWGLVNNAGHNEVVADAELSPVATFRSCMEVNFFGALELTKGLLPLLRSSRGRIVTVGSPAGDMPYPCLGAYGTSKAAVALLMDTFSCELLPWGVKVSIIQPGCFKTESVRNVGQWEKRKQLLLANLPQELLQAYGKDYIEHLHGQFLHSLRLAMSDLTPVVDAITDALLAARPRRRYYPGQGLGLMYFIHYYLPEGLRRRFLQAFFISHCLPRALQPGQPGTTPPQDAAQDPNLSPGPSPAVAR
Procedure: as §1, §2

[1] = molecular target: T3, 11β-HSD1 in 3T3-L1 adipocytes (Mus musculus, UniProt P50172); experiment: 11β-HSD1 activity assay in 3T3-L1 adipocytes; format: cell-based
T3 construct: endogenous in cells; host or cells: 3T3-L1 adipocytes
T3 sequence (P50172 whole entry): as the sequence (P50172 whole entry) above
Procedure: 11β-HSD1 enzyme inhibition in adipose tissue is believed to be important for achieving efficacy in vivo [11, 12]. Derivatives with potent enzymatic potency and excellent selectivity profiles (13, 14, 17, 28a, 28b and 30) were also evaluated their 11β-HSD1 inhibition in 3T3-L1 adipocyte.
The reductase activity of 11β-HSD1 in intact 3T3-L1 adipocytes was determined by measuring the rate of conversion of cortisone to cortisol. To explore the effect of compounds on 11β-HSD1 reductase activity, 3T3-L1 adipocytes were incubated for 1 h at 37 °C in serum-free DMEM containing 6.25 nmol/L [1,2-(N)^3H]-cortisone and different concentrations of compounds, according to experimental design. 0.1% DMSO was set as the vehicle control and MK544 was set as the positive control. At the end of the incubation, 80 μL of medium was pipetted into a transparent bottom 96-well plate, and 35 μL of SuperBlock Blocking Buffer containing 10 g/L of protein A-coated yttrium silicate beads and 3 mg/L of anti-cortisol antibodies was added. The mixtures were shaken in the dark for 2 h and then used for liquid scintillation readings. The inhibition effect was calculated by the following equation: Inhibition%=Data(compound)-Data(DMSO Vehicle)/Data(MK54410μM)-Data(DMSO Vehicle)×100%.

| SMILES | IC50 (mouse 11β-HSD1) [µM] | Mouse SI (selectivity index) (mouse 11β-HSD1; Table 3) | inhibition at 1 µM (mouse 11β-HSD1) [%] | IC50 (mouse 11β-HSD2) [µM] | IC50 (human 11β-HSD1) [µM] | Human SI (selectivity index) (human 11β-HSD1) | inhibition at 1 µM (human 11β-HSD1) [%] | IC50 (human 11β-HSD2) [µM] | IC50 ([1]; 1 h incubation, averages of three determinations, read-out: IC50, cellular assay on 3T3-L1 adipocyte against 11β-HSD1) [µM] | Max effect ([1]; inhibition relative to MK544 10 μM) [%] | Mouse SI (selectivity index) (mouse 11β-HSD1; Table 1) |
| --- | --- | --- | --- | --- | --- | --- | --- | --- | --- | --- | --- |
| Cc1coc2c1C(=O)C(=O)c1ccccc1-2 [Compound 10] | 0.0665 ± 0.0056 | > 150.3 | 89.9 ± 0.9 | > 10 | 0.121 | > 82.5 | 87.6 ± 2.2 | > 10 | – | – | – |
| Cc1c(-c2ccnc3ccccc23)oc2c1C(=O)C(=O)c1c-2ccc2c1CCCC2(C)C [Compound 27e] | – | – | 42.9 ± 3.7 | – | – | – | 15.1 ± 0.8 | – | – | – | – |
| C[C@H]1COC2=C1C(=O)C(=O)c1c2ccc2c1CCCC2(C)C [Compound 2, cryptotanshinone] | 0.0418 ± 0.0087 | – | 89.9 ± 3.7 | > 1000 | 0.0731 ± 0.0313 | – | 91.3 ± 0.1 | 12.1 | – | – | > 23,923 |
| Cc1coc2c1c(=O)oc1c3ccccc3ccc21 [Compound 9] | – | – | 8.4 | – | – | – | 14 ± 1.3 | – | – | – | – |
| Cc1c(Br)oc2c1C(=O)C(=O)c1c-2ccc2c1C=CCC2(C)C [Compound 33] | 0.0393 ± 0.0076 | > 2551.0 | 87.3 ± 1.3 | > 100 | 0.21 | 5.8 | 70 ± 0.4 | 1.2 ± 0.5 | – | – | – |
| Cc1c(CN2CCN(C)CC2)oc2c1C(=O)C(=O)c1c-2ccc2c1CCCC2(C)C [Compound 29d] | 0.272 ± 0.0602 | > 367.2 | 55.6 ± 1.8 | > 100 | 0.183 ± 0.0325 | 13.6 | 67.3 ± 3.1 | 2.5 ± 0.6 | – | – | – |
| Cc1coc2c3ccc4c(c3c3[nH]c(-c5ccc(O)cc5)nc3c12)CCCC4(C)C [Compound 26] | – | – | 19.2 ± 5.3 | – | – | – | 12.8 ± 0.8 | – | – | – | – |
| Cc1c(CN2CCOCC2)oc2c1C(=O)C(=O)c1c-2ccc2c1CCCC2(C)C [Compound 29c] | – | – | 6.7 ± 4.3 | – | – | – | 45.2 ± 0.7 | – | – | – | – |
| C1CCc2nnc(C34CC5CC(CC(C5)C3)C4)n2CC1 [MK544, reference compound] | – | – | – | – | – | – | – | – | 0.4 ± 0.1 | 98.0 ± 0.7 | – |
| Cc1c(-c2ccccc2)oc2c1C(=O)C(=O)c1c-2ccc2c1CCCC2(C)C [Compound 27a] | – | – | 25.9 ± 0.3 | – | – | – | 33.9 ± 1.8 | – | – | – | – |
| Cc1c(-c2ccc(F)cc2)oc2c1C(=O)C(=O)c1c-2ccc2c1CCCC2(C)C [Compound 27b] | – | – | 5.6 ± 0.5 | – | – | – | 3.8 ± 1.5 | – | – | – | – |
| Cc1coc2ccc(O)cc12 [Compound 12] | – | – | 12.4 ± 1.4 | – | – | – | 10 ± 2.3 | – | – | – | – |
| Cc1coc2c1C(=O)C(=O)C=C2 [Compound 11] | – | – | 33 ± 2.3 | – | – | – | 9.9 ± 1.1 | – | – | – | – |
| Cc1c(CN2CCCCC2)oc2c1C(=O)C(=O)c1c-2ccc2c1CCCC2(C)C [Compound 29b] | 0.0655 ± 0.0037 | > 1526.7 | 89.5 | > 100 | 0.0426 ± 0.0044 | 151.9 | 87.8 ± 0.8 | 6.5 ± 3.6 | – | – | – |
| CC(=O)Oc1c2c(c3ccc4c(c3c1OC(C)=O)CCCC4(C)C)OC[C@@H]2C [Compound 21] | – | – | 28.6 ± 0.3 | – | – | – | 5.1 ± 1.8 | – | – | – | – |
| Cc1c(-c2ccncc2)oc2c1C(=O)C(=O)c1c-2ccc2c1CCCC2(C)C [Compound 27c] | 0.0069 ± 0.0012 | > 1451.4 | 70.6 ± 0.5 | > 10 | 0.126 ± 0.0005 | 48.4 | 82.5 ± 0.9 | 6.1 ± 0.7 | – | – | – |

Continued, in another order:

| IC50 (mouse 11β-HSD1) [µM] | Mouse SI (selectivity index) (mouse 11β-HSD1; Table 3) | inhibition at 1 µM (mouse 11β-HSD1) [%] | IC50 (mouse 11β-HSD2) [µM] | IC50 (human 11β-HSD1) [µM] | Human SI (selectivity index) (human 11β-HSD1) | inhibition at 1 µM (human 11β-HSD1) [%] | IC50 (human 11β-HSD2) [µM] | IC50 ([1]; 1 h incubation, averages of three determinations, read-out: IC50, cellular assay on 3T3-L1 adipocyte against 11β-HSD1) [µM] | Max effect ([1]; inhibition relative to MK544 10 μM) [%] | SMILES | Mouse SI (selectivity index) (mouse 11β-HSD1; Table 1) |
| --- | --- | --- | --- | --- | --- | --- | --- | --- | --- | --- | --- |
| 0.0672 ± 0.0064 | > 1488.1 | 90.8 ± 1.7 | > 100 | 0.85 ± 0.2 | 2.2 | 53.9 ± 1.6 | 1.9 ± 0.3 | – | – | CC1(C)C(=O)C=Cc2c1ccc1c2C(=O)C(=O)c2c(CO)coc2-1 [Compound 34] | – |
| 0.0966 ± 0.0165 | > 103.6 | 81.8 ± 1.5 | > 10 | – | – | 38.5 ± 2.2 | – | – | – | Cc1coc2c1C(=O)C(=O)c1c-2ccc2c1C(=O)C(O)=CC2(C)C [Compound 20] | – |
| 0.328 ± 0.0202 | > 30.5 | 70.1 ± 1.1 | > 10 | > 1 | – | 21.4 ± 1.8 | – | – | – | CC1(C)CCCc2c1ccc1c2C(=O)C(=O)c2c-1oc(Cl)c2CO [Compound 32] | – |
| – | – | 49.4 ± 1.6 | – | – | – | 43.2 ± 1.7 | – | – | – | Cc1coc2c1C(=O)C(=O)c1c-2ccc2c1C(=O)C(O)CC2(C)C (stereo not drawn) [Compound 18b] | – |
| 0.0219 ± 0.0079 | > 4575.5 | 83.6 ± 1.9 | > 100 | – | – | 48.9 ± 1.9 | – | – | – | CC(=O)OC1CCc2c(ccc3c2C(=O)C(=O)c2c(CO)coc2-3)C1(C)C (stereo not drawn) [Compound 35] | – |
| 0.095 ± 0.0178 | > 105.3 | 85.1 ± 0.6 | > 10 | – | – | 35.5 ± 2.8 | – | – | – | C[C@@H](CO)C1=C(N)c2ccc3c(c2C(=O)C1=O)CCCC3(C)C [Compound 25] | – |
| – | – | 37 ± 3.2 | – | – | – | 16.9 ± 3.7 | – | – | – | CC1(C)CCCc2c1ccc1c2C(=O)C(=O)c2c(CN3CCOCC3)coc2-1 [Compound 31b] | – |
| 0.0566 ± 0.0007 | > 176.4 | 88.9 ± 3.5 | > 10 | > 1 | – | 32.6 ± 5.8 | – | – | – | CC1(C)CCCc2c1ccc1c2C(=O)C(=O)c2c(CNc3ccccc3)coc2-1 [Compound 31a] | – |
| 0.138 ± 0.0108 | > 724.1 | 89 ± 3.5 | > 100 | – | – | 31.1 ± 0.2 | – | – | – | Cc1coc2c1C(=O)C(=O)c1c-2ccc2c1[C@H](O)[C@@H](O)CC2(C)C (racemic) [Compound 18a] | – |
| 0.0171 ± 0.0009 | > 5813.9 | 96.6 ± 0.6 | > 100 | 0.038 ± 0.0004 | 147.9 | 92.1 ± 2.4 | 5.6 ± 0.9 | – | – | Cc1c(CN(C)C)oc2c1C(=O)C(=O)c1c-2ccc2c1CCCC2(C)C [Compound 29a] | – |
| – | – | 37.4 ± 2.8 | – | – | – | 14.5 ± 1.4 | – | – | – | Cc1c(-c2ccsc2)oc2c1C(=O)C(=O)c1c-2ccc2c1CCCC2(C)C [Compound 27d] | – |
| 0.0101 ± 0.0008 | > 9900.9 | 89.3 ± 1.5 | > 100 | 0.89 ± 0.1 | 8.2 | 50.3 ± 2.7 | 7.3 ± 2.2 | – | – | CC(=O)OC1CCc2c(ccc3c2C(=O)C(=O)c2c(C)coc2-3)C1(C)C (stereo not drawn) [Compound 16] | – |
| – | – | 56 ± 2.2 | – | – | – | 33.6 ± 0.8 | – | – | – | Cc1c[nH]c2c1C(=O)C(=O)c1c-2ccc2c1CCCC2(C)C [Compound 24] | – |
| 0.0729 ± 0.0093 | > 1371.7 | 85.3 ± 0.2 | > 100 | – | – | 40.6 ± 1.5 | – | – | – | Cc1coc2c1C(=O)C(=O)c1c-2ccc2c1CCC(O)C2(C)C (stereo not drawn) [Compound 15] | – |
| 0.0484 ± 0.0066 | > 206.6 | 86.7 ± 2.1 | > 10 | 0.32 | 8.3 | 63.9 ± 2.7 | 2.7 ± 0.5 | – | – | Cc1coc2c1C(=O)C(=O)c1c-2ccc2c1C[C@@H](O)CC2(C)C [Compound 19] | – |
